What was measured:
[1] = target: human BCL6 BTB domain (Trx-6×His-BCL6) / BCOR-AF633 peptide (Homo sapiens (Human), UniProt P41182); experiment: HTRF assay; type: binding; settings: 1 nM Trx-6×His-BCL6, 300 nM BCOR-AF633 peptide, 2 hours incubation
[2] = target: endogenous BCL6 protein in SUDHL-4 cells (Homo sapiens (Human), UniProt P41182); experiment: Immunofluorescence-based BCL6 degradation assay (SUDHL4); type: cell-based; settings: 2 hours with compound, DC50 = concentration at which 50% of endogenous BCL6 protein is degraded
Method: DC50 values (compound concentration at which 50% of endogenous BCL6 protein is degraded) were determined in SUDHL-4 cells (American Type Culture Collection) in an immunofluorescence-based assay using an InCell2200 high content imaging system (GE Healthcare). Briefly, 40 μL of lymphoma suspension cells cultured in RPMI 1640-10% FBS (Sigma-Aldrich or PAN Biotech UK Ltd) were platted on fibronectin (Sigma catalogue F1141)-coated 384 well Cell Carrier Ultra plate (Perkin Elmer catalogue 6057300) at 1.2 104 cells/well. After 20 hours cell culture at 37° C./CO2 incubator, compounds were dispensed in the cell culture plate using ECHO550 acoustic dispenser (Labcyte, Inc.), as 8 point-concentration response (ranging from 5 nM to 10 μM) in 0.67% final DMSO concentration. Cells were incubated with compound for 2 hours at 37° C./CO2 incubator followed by fixation in 4.5% formaldehyde (37% formaldehyde solution, Sigma catalogue F8775) at room temperature for 15 min. After fixing, cells were washed in 1×TBS (Tris Buffer Saline) using a Power Washer 384 (Tecan Group Ltd). Blocking and cell permeabilisation were performed by incubating the fixed cells for 1 hour at room temperature in 1×TBS, 5% BSA, 1% Triton X100, followed by three washes on PW384 plate washer. Primary and secondary antibodies were prepared in 1×TBS, 1% BSA, 0.2% Triton X100. BCL6 expression was detected by incubating the cells for 1 h 30 with BCL6 rabbit polyclonal antibody (Sigma Catalogue HPA004899) at 1:250, 0.8 μg/ml, followed by 1 hour in chicken anti-Rabbit Alexa 488 conjugated antibody (Life Technology) at 1:500. After incubation in each antibody, cells were washes four times in 1×TBS-0.05% tween on PW384 plate washer. Cells were finally incubated for 60 min with nuclear staining RedDot2 dye (Biotium) at 0.5× the stock concentration in 1×TBS. BCL6 expression in the absence or presence of compound was detected on InCell2200 with 20× objective and quantified on InCell Analyser 3.7.2 workstation (GE Healthcare). The % response at each concentration was calculated by normalising BCL6 expression in the presence of compound to the appropriate high (DMSO) and low (DMSO with 7 μM of a control compound (5-((5-chloro-2-((3R,5S)-4,4-difluoro-3,5-dimethylpiperidin-1-yl)pyrimidin-4-yl)amino)-3-(3-hydroxy-3-methylbutyl)-1-methyl-1,3-dihydro-2H-benzo[d]imidazol-2-one)) controls.

[3] = target: BCL6-NCOR2(SMRT) corepressor protein-protein interaction (Homo sapiens (Human), UniProt P41182); experiment: NanoBRET cell assay; type: cell-based; settings: for IC50: read-out: NanoBRET cell avg pIC50 (converted)
Source text: At 20 hr post-transfection, cells were collected, washed with PBS, and exchanged into media containing phenol red-free OptiMEM+4% FBS (Life Technology).

HTRF avg pIC50 (1 nM) [1] | SUDHL4 avg pDC50 [2] | IC50 [3] | Compound | NanoBRET cell avg pIC50 ([3]; HEK293T cells co-transfected with BCL6-nanoLuc and NCOR2-HaloTag, 6 hr incubation)
6.55 | 6.50 | 13.5 µM | C[C@@H]1C[C@H](C)CN(c2ncc(Cl)c(Nc3ccc4c(c3)c3c(c(=O)n4C)C(=O)OC[C@H](C)N3)n2)C1 [Example 8g, (S)-10-((5-chloro-2-((3R,5S)-3,5-dimethylpiperidin-1-yl)pyrimidin-4-yl)amino)-2,7-dimethyl-2,3-dihydro-[1,4]oxazepino[6,5-c]quinoline-5,6(1H,7H)-dione] | –
6.80 | 6.78 | 17.8 µM | C[C@@H]1CN(c2ncc(Cl)c(Nc3ccc4c(c3)c3c(c(=O)n4C)C(=O)OC[C@H](C)N3)n2)C[C@H](C)C1(F)F [Example 8c, (S)-10-((5-chloro-2-((3S,5R)-4,4-difluoro-3,5-dimethylpiperidin-1-yl)pyrimidin-4-yl)amino)-2,7-dimethyl-2,3-dihydro-[1,4]oxazepino[6,5-c]quinoline-5,6(1H,7H)-dione] | –

Further lines, the compound ahead of its results:

Compound | HTRF avg pIC50 (1 nM) [1] | SUDHL4 avg pDC50 [2] | IC50 [3] | NanoBRET cell avg pIC50 ([3]; HEK293T cells co-transfected with BCL6-nanoLuc and NCOR2-HaloTag, 6 hr incubation)
C[C@@H]1CN(c2ncc(Cl)c(Nc3ccc4c(c3)c3c(c(=O)n4C)OCC[C@H](C4CC4)N3)n2)C[C@H](C)C1(F)F [Example 5i, (R)-10-((5-chloro-2-((3S,5R)-4,4-difluoro-3,5-dimethylpiperidin-1-yl)pyrimidin-4-yl)amino)-2-cyclopropyl-7-methyl-1,2,3,4-tetrahydro-[1,4]oxazepino[2,3-c]quinolin-6(7H)-one] | 6.70 | 6.79 | – | –
C[C@@H]1CN(c2ncc(Cl)c(Nc3cnc4c(c3)c3c(c(=O)n4C)OCC[C@H](C4CC4)N3)n2)C[C@H](C)C1(F)F [Example 5t, (R)-10-((5-chloro-2-((3S,5R)-4,4-difluoro-3,5-dimethylpiperidin-1-yl)pyrimidin-4-yl)amino)-2-cyclopropyl-7-methyl-1,2,3,4-tetrahydro-[1,4]oxazepino[2,3-c][1,8]naphthyridin-6(7H)-one] | 6.61 | 6.54 | – | –
C[C@@H]1CN(c2ncc(Cl)c(Nc3ccc4[nH]c(=O)c5c(c4c3)N[C@@H](C3CC3)CCO5)n2)C[C@H](C)C1(F)F [Example 5p, (R)-10-((5-chloro-2-((3S,5R)-4,4-difluoro-3,5-dimethylpiperidin-1-yl)pyrimidin-4-yl)amino)-2-cyclopropyl-1,2,3,4-tetrahydro-[1,4]oxazepino[2,3-c]quinolin-6(7H)-one] | 6.24 | 6.87 | – | –
Cn1c(=O)c2c(c3cc(Nc4nc(N5CCC(F)(F)CC5)ncc4Cl)ccc31)N[C@@H](C1CC1)CCO2 [Example 5m, (R)-10-((5-chloro-2-(4,4-difluoropiperidin-1-yl)pyrimidin-4-yl)amino)-2-cyclopropyl-7-methyl-1,2,3,4-tetrahydro-[1,4]oxazepino[2,3-c]quinolin-6(7H)-one] | 6.93 | 6.84 | – | –
(R)-10-((5-chloro-2-((3R,5S)-3-hydroxy-5- methylpiperidin-1-yl)pyrimidin-4-yl)amino)-2-cyclopropyl-7- methyl-1,2,3,4-tetrahydro-[1,4]oxazepino[2,3-c]quinolin-6(7H)-one or (R)-10-((5-chloro-2-((3S,5R)-3-hydroxy-5-methylpiperidin-1- yl)pyrimidin-4-yl)amino)-2-cyclopropyl-7-methyl-1,2,3,4-tetrahydro- [1,4]oxazepino[2,3-c]quinolin-6(7H)-one: formic acid (1:2) [Example 12c] | 8.01 | 7.83 | – | –
C[C@@H]1CN(c2ncc(Cl)c(Nc3ccc4c(c3)c3c(c(=O)n4C)OCC[C@H](C)N3)n2)C[C@H](C)C1(F)F [Example 5f, (S)-10-((5-chloro-2-((3S,5R)-4,4-difluoro-3,5-dimethylpiperidin-1-yl)pyrimidin-4-yl)amino)-2,7-dimethyl-1,2,3,4-tetrahydro-[1,4]oxazepino[2,3-c]quinolin-6(7H)-one] | 6.07 | 6.63 | 6.17 µM | –
C[C@@H]1C[C@H](C)CN(c2ncc(Cl)c(Nc3ccc4c(c3)c3c(c(=O)n4C)OCC[C@H](C)N3)n2)C1 [Example 5e, (S)-10-((5-chloro-2-((3R,5S)-3,5-dimethylpiperidin-1-yl)pyrimidin-4-yl)amino)-2,7-dimethyl-1,2,3,4-tetrahydro-[1,4]oxazepino[2,3-c]quinolin-6(7H)-one] | 6.18 | 6.22 | 5.25 µM | –
(R)-10-((5-chloro-2-((3S,5R)-3-hydroxy-5- methylpiperidin-1-yl)pyrimidin-4-yl)amino)-2-cyclopropyl-7- methyl-1,2,3,4-tetrahydro-[1,4]oxazepino[2,3-c]quinolin-6(7H)-one or (R)-10-((5-chloro-2-((3R,5S)-3-hydroxy-5-methylpiperidin-1- yl)pyrimidin-4-yl)amino)-2-cyclopropyl-7-methyl-1,2,3,4-tetrahydro- [1,4]oxazepino[2,3-c]quinolin-6(7H)-one: formic acid (1:1) [Example 12d] | 7.74 | – | – | 7.06
C[C@H]1CCOc2c(c3cc(Nc4nc(-n5ccc(C(F)(F)F)n5)ncc4Cl)ccc3n(C)c2=O)N1 [Example 5c, (S)-10-((5-chloro-2-(3-(trifluoromethyl)-1H-pyrazol-1-yl)pyrimidin-4-yl)amino)-2,7-dimethyl-1,2,3,4-tetrahydro-[1,4]oxazepino[2,3-c]quinolin-6(7H)-one] | 6.43 | – | 4.68 µM | –

Reference: US20230287003A1, “BCL6 INHIBITORS” (Cancer Research Technology Limited, priority 2018, published 2023)
